Assay results: PubChem BioAssay (NCI)
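Interpolation was linear, between the two tested concentrations surrounding the appropriate level; five concentrations were tested over 48 hours in 96-well plates. GI50 marks 50% less growth. TGI: total growth inhibition.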

Legend:
Assay in all cases: growth of human tumour cells (NCI), 48 h
786-0 renal = test system: 786-0 renal
A498 renal = test system: A498 renal
A549 NSCLC = test system: A549 NSCLC
ACHN renal = test system: ACHN renal
BT-549 breast = test system: BT-549 breast
CCRF-CEM leukemia = test system: CCRF-CEM leukemia
COLO 205 colon = test system: COLO 205 colon
DU-145 prostate = test system: DU-145 prostate
EKVX NSCLC = test system: EKVX NSCLC
HCT-116 colon = test system: HCT-116 colon
HCT-15 colon = test system: HCT-15 colon
HL-60(TB) leukemia = test system: HL-60(TB) leukemia
HOP-62 NSCLC = test system: HOP-62 NSCLC
HOP-92 NSCLC = test system: HOP-92 NSCLC
HS 578T breast = test system: HS 578T breast
HT29 colon = test system: HT29 colon
IGROV1 ovarian = test system: IGROV1 ovarian
K-562 leukemia = test system: K-562 leukemia
KM12 colon = test system: KM12 colon
M14 melanoma = test system: M14 melanoma
MALME-3M melanoma = test system: MALME-3M melanoma
MCF7 breast = test system: MCF7 breast
MDA-MB-231 breast = test system: MDA-MB-231 breast
MDA-MB-435 = test system: MDA-MB-435
MOLT-4 leukemia = test system: MOLT-4 leukemia
NCI-H226 lung = test system: NCI-H226 lung
NCI-H23 lung = test system: NCI-H23 lung
NCI-H460 lung = test system: NCI-H460 lung
NCI-H522 lung = test system: NCI-H522 lung
NCI/ADR-RES ovarian = test system: NCI/ADR-RES ovarian
OVCAR-3 ovarian = test system: OVCAR-3 ovarian
OVCAR-4 ovarian = test system: OVCAR-4 ovarian
OVCAR-5 ovarian = test system: OVCAR-5 ovarian
OVCAR-8 ovarian = test system: OVCAR-8 ovarian
PC-3 prostate = test system: PC-3 prostate
RPMI-8226 leukemia = test system: RPMI-8226 leukemia
RXF 393 renal = test system: RXF 393 renal
SF-268 CNS = test system: SF-268 CNS
SF-295 CNS = test system: SF-295 CNS
SF-539 CNS = test system: SF-539 CNS
SK-MEL-2 melanoma = test system: SK-MEL-2 melanoma
SK-MEL-28 melanoma = test system: SK-MEL-28 melanoma
SK-MEL-5 melanoma = test system: SK-MEL-5 melanoma
SK-OV-3 ovarian = test system: SK-OV-3 ovarian
SN12C renal = test system: SN12C renal
SNB-75 CNS = test system: SNB-75 CNS
SW-620 colon = test system: SW-620 colon
T-47D breast = test system: T-47D breast
TK-10 renal = test system: TK-10 renal
U251 CNS = test system: U251 CNS
UACC-257 melanoma = test system: UACC-257 melanoma
UACC-62 melanoma = test system: UACC-62 melanoma
UO-31 renal = test system: UO-31 renal

## C=C1C(=O)O[C@H]2[C@H]1CC/C(COC(=O)/C=C/c1c[nH]c3ccccc13)=C\CC[C@@]1(C)O[C@@H]21
786-0 renal
  GI50: 221 nM
  TGI: 555 nM
A498 renal
  GI50: 278 nM
  TGI: 1130 nM
A549 NSCLC
  GI50: 1270 nM
  TGI: 2710 nM
ACHN renal
  GI50: 202 nM
  TGI: 545 nM
BT-549 breast
  GI50: 175 nM
  TGI: 384 nM
CCRF-CEM leukemia
  GI50: 73.3 nM
  TGI: 854 nM
COLO 205 colon
  GI50: 225 nM
  TGI: 541 nM
DU-145 prostate
  GI50: 393 nM
  TGI: 1430 nM
EKVX NSCLC
  GI50: 238 nM
  TGI: 769 nM
HCT-116 colon
  GI50: 185 nM
  TGI: 425 nM
HCT-15 colon
  GI50: 181 nM
  TGI: 425 nM
HL-60(TB) leukemia
  GI50: 256 nM
  TGI: 717 nM
HOP-62 NSCLC
  GI50: 829 nM
  TGI: 2160 nM
HOP-92 NSCLC
  GI50: 156 nM
  TGI: 369 nM
HS 578T breast
  GI50: 353 nM
  TGI: 2920 nM
HT29 colon
  GI50: 195 nM
  TGI: 416 nM
IGROV1 ovarian
  GI50: 225 nM
  TGI: 484 nM
K-562 leukemia
  GI50: 273 nM
  TGI: > 100000 nM
KM12 colon
  GI50: 402 nM
  TGI: 1640 nM
M14 melanoma
  GI50: 221 nM
  TGI: 572 nM
MALME-3M melanoma
  GI50: 283 nM
  TGI: 828 nM
MCF7 breast
  GI50: 226 nM
  TGI: 1010 nM
MDA-MB-231 breast
  GI50: 177 nM
  TGI: 374 nM
MDA-MB-435
  GI50: 222 nM
  TGI: 582 nM
MOLT-4 leukemia
  GI50: 302 nM
  TGI: 1780 nM
NCI-H226 lung
  GI50: 230 nM
  TGI: 702 nM
NCI-H23 lung
  GI50: 1250 nM
  TGI: 4320 nM
NCI-H460 lung
  GI50: 1010 nM
  TGI: 2660 nM
NCI-H522 lung
  GI50: 186 nM
  TGI: 371 nM
NCI/ADR-RES ovarian
  GI50: 357 nM
  TGI: 12200 nM
OVCAR-3 ovarian
  GI50: 173 nM
  TGI: 370 nM
OVCAR-4 ovarian
  GI50: 207 nM
  TGI: 546 nM
OVCAR-5 ovarian
  GI50: 315 nM
  TGI: 1380 nM
OVCAR-8 ovarian
  GI50: 191 nM
  TGI: 421 nM
PC-3 prostate
  GI50: 329 nM
  TGI: 1520 nM
RPMI-8226 leukemia
  GI50: 33.2 nM
  TGI: 123 nM
RXF 393 renal
  GI50: 172 nM
  TGI: 331 nM
SF-268 CNS
  GI50: 229 nM
  TGI: 569 nM
SF-295 CNS
  GI50: 1620 nM
  TGI: 3140 nM
SF-539 CNS
  GI50: 261 nM
  TGI: 941 nM
SK-MEL-2 melanoma
  GI50: 208 nM
  TGI: 412 nM
SK-MEL-28 melanoma
  GI50: 332 nM
  TGI: 1300 nM
SK-MEL-5 melanoma
  GI50: 208 nM
  TGI: 516 nM
SK-OV-3 ovarian
  GI50: 1880 nM
  TGI: 3590 nM
SN12C renal
  GI50: 197 nM
  TGI: 478 nM
SNB-75 CNS
  GI50: 170 nM
  TGI: 428 nM
SW-620 colon
  GI50: 181 nM
  TGI: 446 nM
T-47D breast
  GI50: 205 nM
  TGI: 626 nM
TK-10 renal
  GI50: 279 nM
  TGI: 709 nM
U251 CNS
  GI50: 212 nM
  TGI: 528 nM
UACC-257 melanoma
  GI50: 354 nM
  TGI: 1460 nM
UACC-62 melanoma
  GI50: 177 nM
  TGI: 379 nM
UO-31 renal
  GI50: 157 nM
  TGI: 294 nM
